Results taken from US20190218261A1, “TARGETED ENHANCED DNA DEMETHYLATION” (The Jackson Laboratory, priority 2016, published 2019).

System: hMLH1 expression (methylation-silenced hMLH1 promoter) in HEK293T cells
Test: hMLH1 mRNA levels by TaqMan qRT-PCR in transfected HEK293T cells
Format: cell-based, human
Conditions: for hMLH1 activation, comparison in words (direct dCas9 fusions vs Casilio-ME): same combination of sgRNAs; for hMLH1 expression, fold over background (change in mRNA levels): sgRNAs 3+7, 60 hours post-transfection, GAPDH control; for stimulation of TET1(CD) mediated hMLH1 activation by GADD45A PUFc fusions: co-expressed with PUFa-TET1(CD), gRNAs-PBSac
Procedure: To test the system, HEK293T cells were transfected with Casilio-ME components including Ct or Nt-fusion TET1-effector and a combination of 3 or 2 sgRNAs. Relative levels of hMLH1 mRNA were determined in TaqMan assays by using RNA extracted from cells 60 hours post-transfection and GAPDH as endogenous control for normalization of qRT-PCR measurements.
Cell culture and transfection. HEK293T cells were cultivated in Dulbecco's modified Eagle's medium (DMEM)(Sigma) with 10% fetal bovine serum (FBS)(Lonza), 4% Glutamax (Gibco), 1% Sodium Pyruvate (Gibco) and penicillin-streptomycin (Gibco) in an incubator set to 37° C. and 5% CO2. When indicated cells were treated with 2.5 μM or 5 μM 5-Azacytidine (sigma) as indicated with a daily change of medium containing freshly diluted drug. Cells were seeded into 12-well plates at 150,000 cells per well the day before being transfected with 100 ng of dCas9 construct, 100 ng of modified sgRNA construct and 200 ng of PUF-fusion with Attractene transfection reagent according to manufacturer's instructions (Qiagen). In dCas9-direct fusion experiments, cells were transfected with 200 ng dCas9-fusion constructs and 200 ng of modified sgRNA constructs. Transfected cells were harvested 60 hours after transfection, or otherwise indicated, and cell pellets were used for extractions of RNA, genomic DNA and protein.
Quantitative RT-PCR analysis. Cells were harvested, washed with Dulbecco's phosphate-buffered saline (dPBS), centrifuged at 125×g for 5 min and then the flash-frozen pellets were stored at −80° C. RNA was extracted using RNeasy Plus Mini Kit according to the manufacturer's instructions (Qiagen). cDNA libraries were made using Applied Biosystems High Capacity RNA-to-cDNA kit with 200 ng to 1 μg of RNA. TaqMan gene expression assays (Applied Biosystems) were designed using GAPDH (Hs03929097, VIC) as endogenous control and hMLH1 (Hs00179866, FAM) as target. TaqMan Universal Master Mix II, with UNG (Applied Biosystems) was used for Quantitative PCR (qPCR), with 2 μl of diluted cDNA used for each reaction. Activation was analyzed with the Applied Biosystems ViiA7 instrument. Gene expression levels were calculated by “delta delta Ct” algorithm and normalized to control samples.
HEK293T cells were cultivated in Dulbecco's modified Eagle's medium (DMEM) (Sigma) with 10% fetal bovine serum (FBS) (Lonza), 4% Glutamax (Gibco), 1% Sodium Pyruvate (Gibco) and penicillin-streptomycin (Gibco) in an incubator set to 37° C. and 5% CO2. Cells were seeded into 12-well plates at 150,000 cells per well the day before being transfected with 100 ng of dCas9 construct, 100 ng of modified sgRNA construct and 200 ng of PUF-fusion with Attractene transfection reagent according to manufacturer's instructions (Qiagen). Transfected cells were harvested 3 days after transfection, or otherwise indicated, and cell pellets were used for RNA extractions.
Cells were harvested, washed with Dulbecco's phosphate-buffered saline (dPBS), centrifuged at 125×g for 5 min and then the flash-frozen pellets were stored at −80° C. RNA was extracted using RNeasy Plus Mini Kit according to the manufacturer's instructions (Qiagen). cDNA libraries were made using Applied Biosystems High Capacity RNA-to-cDNA kit with 200 ng to 2 μg of RNA. TaqMan gene expression assays (Applied Biosystems) were designed using GAPDH (Hs03929097, VIC) as endogenous control and hMLH1 (Hs00179866, FAM) as target. TaqMan Universal Master Mix II, with UNG (Applied Biosystems) was used for Quantitative PCR (qPCR), with 2 μl of diluted cDNA used for each reaction. Activation was analyzed with the Applied Biosystems ViiA7 instrument. Gene expression levels were calculated by “delta delta Ct” algorithm and normalized to control samples.

Molecule | hMLH1 activation, comparison in words (direct dCas9 fusions vs Casilio-ME) (HEK293T) | hMLH1 expression, fold over background (change in mRNA levels) (HEK293T) | stimulation of TET1(CD) mediated hMLH1 activation by GADD45A PUFc fusions | also measured
TET1(CD)-dCas9: direct N-terminal fusion of TET1(CD) to dCas9; SEQ ID NO:52 | much weaker activation than its respective C-terminal fusion |  |  | 
dCas9-TET1(CD): direct C-terminal fusion of TET1(CD) to dCas9; SEQ ID NO:53 | relatively weak activation | 19 fold |  | hMLH1 activation relative to dCas9-p65HSF1 (HEK293T, same sgRNA combination): at best twice the activity obtained with transcription activator dCas9 fusion; hMLH1 activation as share of activation obtained using Casilio-ME (same sgRNAs combination, parallel experiment): about 14%
PUFa-GADD45A-TET1(CD): GADD45A between PUFa and TET1(CD); SEQ ID NO:105 (protein) MIDGGGGSDPKKKRKVDPKKKRKVDPKKKRKVGSTGSRNDGGGGSGGGGSGGGGSGRAGILPPKKKRKVSRGRSRLLEDFRNNRYPNLQLREIAGHIMEFSQDQHGSRFIQLKLERATPAERQLVFNEILQAAYQLMVDVFGNYVIQKFFEFGSLEQKLALAERIRGHVLSLALQMYGSRVIEKALEFIPSDQQNEMVRELDGHVLKCVKDQNGNHVVQKCIECVQPQSLQFIIDAFKGQVFALSTHPYGCRVIQRILEHCLPDQTLPILEELHQHTEQLVQDQYGNYVIQHVLEHGRPEDKSKIVAEIRGNVLVLSQHKFASNVVEKCVTHASRTERAVLIDEVCTMNDGPHSALYTMMKDQYANYVVQKMIDVAEPGQRKIVMHKIRPHIATLRKYTYGKHILAKLEKYYMKNGVDLGDPKKKRKVDPKKKRKVGGRGGGSGGGSGGGSGGGSGGGSGGGSLTLEEFSAGEQKTERMDKVGDALEEVLSKALSQRTITVGVYEAAKLLNVDPDNVVLCLLAADEDDDRDVALQIHFTLIQAFCCENDINILRVSNPGRLAELLLLETDAGPAASEGAEQPPDLHCVLVTNPHSSQWKDPALSQLICFCRESRYMDQWVPVINLPERSRGRGGGGSGGGGSGGGGSGPAELPTCSCLDRVIQKDKGPYYTHLGAGPSVAAVREIMENRYGQKGNAIRIEIVVYTGKEGKSSHGCPIAKWVLRRSSDEEKVLCLVRQRTGHHCPTAVMVVLIMVWDGIPLPMADRLYTELTENLKSYNGHPTDRRCTLNENRTCTCQGIDPETCGASFSFGCSWSMYFNGCKFGRSPSPRRFRIDPSSPLHEKNLEDNLQSLATRLAPIYKQYAPVAYQNQVEYENVARECRLGSKEGRPFSGVTACLDFCAHPHRDIHNMNNGSTVVCTLTREDNRSLGVIPQDEQLHVLPLYKLSDTDEFGSKEGMEAKIKSGAIEVLAPRRKKRTCFTQPVPRSGKKRAAMMTEVLAHKIRAVEKKPIPRIKRKNNSTTTNNSKPSSLPTLGSNTETVQPEVKSETEPHFILKSSDNTKTYSLMPSAPHPVKEASPGFSWSPKTASATPAPLKNDATASCGFSERSSTPHCTMPSGRLSGANAAAADGPGISQLGEVAPLPTLSAPVMEPLINSEPSTGVTEPLTPHQPNHQPSFLTSPQDLASSPMEEDEQHSEADEPPSDEPLSDDPLSPAEEKLPHIDEYWSDSEHIFLDANIGGVAIAPAHGSVLIECARRELHATTPVEHPNRNHPTRLSLVFYQHKNLNKPQHGFELNKIKFEAKEAKNKKMKASEQKDQAANEGPEQSSEVNELNQIPSHKALTLTHDNVVTVSPYALTHVAGPYNHWVID |  |  |  | enhancement of hMLH1 expression relative to PUFa-TET1(CD) alone (GADD45A two-in-one effectors, HEK293T, TaqMan): 4 fold
TET1(CD)-PUFa: TET1 catalytic domain fused to N-terminus of PUFa; SEQ ID NO:54 (protein) MGPAELPTCSCLDRVIQKDKGPYYTHLGAGPSVAAVREIMENRYGQKGNAIRIEIVVYTGKEGKSSHGCPIAKWVLRRSSDEEKVLCLVRQRTGHHCPTAVMVVLIMVWDGIPLPMADRLYTELTENLKSYNGHPTDRRCTLNENRTCTCQGIDPETCGASFSFGCSWSMYFNGCKFGRSPSPRRFRIDPSSPLHEKNLEDNLQSLATRLAPIYKQYAPVAYQNQVEYENVARECRLGSKEGRPFSGVTACLDFCAHPHRDIHNMNNGSTVVCTLTREDNRSLGVIPQDEQLHVLPLYKLSDTDEFGSKEGMEAKIKSGAIEVLAPRRKKRTCFTQPVPRSGKKRAAMMTEVLAHKIRAVEKKPIPRIKRKNNSTTTNNSKPSSLPTLGSNTETVQPEVKSETEPHFILKSSDNTKTYSLMPSAPHPVKEASPGFSWSPKTASATPAPLKNDATASCGFSERSSTPHCTMPSGRLSGANAAAADGPGISQLGEVAPLPTLSAPVMEPLINSEPSTGVTEPLTPHQPNHQPSFLTSPQDLASSPMEEDEQHSEADEPPSDEPLSDDPLSPAEEKLPHIDEYWSDSEHIFLDANIGGVAIAPAHGSVLIECARRELHATTPVEHPNRNHPTRLSLVFYQHKNLNKPQHGFELNKIKFEAKEAKNKKMKASEQKDQAANEGPEQSSEVNELNQIPSHKALTLTHDNVVTVSPYALTHVAGPYNHWVIDGGGGSDPKKKRKVDPKKKRKVDPKKKRKVGSTGSRNDGGGGSGGGGSGGGGSGRAGILPPKKKRKVSRGRSRLLEDFRNNRYPNLQLREIAGHIMEFSQDQHGSRFIQLKLERATPAERQLVFNEILQAAYQLMVDVFGNYVIQKFFEFGSLEQKLALAERIRGHVLSLALQMYGSRVIEKALEFIPSDQQNEMVRELDGHVLKCVKDQNGNHVVQKCIECVQPQSLQFIIDAFKGQVFALSTHPYGCRVIQRILEHCLPDQTLPILEELHQHTEQLVQDQYGNYVIQHVLEHGRPEDKSKIVAEIRGNVLVLSQHKFASNVVEKCVTHASRTERAVLIDEVCTMNDGPHSALYTMMKDQYANYVVQKMIDVAEPGQRKIVMHKIRPHIATLRKYTYGKHILAKLEKYYMKNGVDLGDPKKKRKVDPKKKRKVGGRGGGGSGGGGSGGGGSGPA |  | ≤ 20 fold |  | 
PUFc-GADD45A: SEQ ID NO:106 (protein) MIDGGGGSDPKKKRKVDPKKKRKVDPKKKRKVGSTGSRNDGGGGSGGGGSGGGGSGRAGILPPKKKRKVSRGRSRLLEDFRNNRYPNLQLREIAGHIMEFSQDQHGSRFIQLKLERATPAERQLVFNEILQAAYQLMVDVFGNYVIQKFFEFGSLEQKLALAERIRGHVLSLALQMYGSRVIEKALEFIPSDQQNEMVRELDGHVLKCVKDQNGNHVVQKCIECVQPQSLQFIIDAFKGQVFALSTHPYGCRVIQRILEHCLPDQTLPILEELHQHTEQLVQDQYGSYVIEHVLEHGRPEDKSKIVAEIRGNVLVLSQHKFANNVVQKCVTHASRTERAVLIDEVCTMNDGPHSALYTMMKDQYANYVVQKMIDVAEPGQRKIVMHKIRPHIATLRKYTYGKHILAKLEKYYMKNGVDLGDPKKKRKVDPKKKRKVGGRGGGGSGGGGSGGGGSGPALTLEEFSAGEQKTERMDKVGDALEEVLSKALSQRTITVGVYEAAKLLNVDPDNVVLCLLAADEDDDRDVALQIHFTLIQAFCCENDINILRVSNPGRLAELLLLETDAGPAASEGAEQPPDLHCVLVTNPHSSQWKDPALSQLICFCRESRYMDQWVPVINLPERSRYPYDVPDYA |  |  | significant stimulation of the TET1(CD) mediated hMLH1 activation | 
GADD45A-PUFc: SEQ ID NO:107 (protein) MTLEEFSAGEQKTERMDKVGDALEEVLSKALSQRTITVGVYEAAKLLNVDPDNVVLCLLAADEDDDRDVALQIHFTLIQAFCCENDINILRVSNPGRLAELLLLETDAGPAASEGAEQPPDLHCVLVTNPHSSQWKDPALSQLICFCRESRYMDQWVPVINLPERSRYPYDVPDYAIDGGGGSDPKKKRKVDPKKKRKVDPKKKRKVGSTGSRNDGGGGSGGGGSGGGGSGRAGILPPKKKRKVSRGRSRLLEDFRNNRYPNLQLREIAGHIMEFSQDQHGSRFIQLKLERATPAERQLVFNEILQAAYQLMVDVFGNYVIQKFFEFGSLEQKLALAERIRGHVLSLALQMYGSRVIEKALEFIPSDQQNEMVRELDGHVLKCVKDQNGNHVVQKCIECVQPQSLQFIIDAFKGQVFALSTHPYGCRVIQRILEHCLPDQTLPILEELHQHTEQLVQDQYGSYVIEHVLEHGRPEDKSKIVAEIRGNVLVLSQHKFANNVVQKCVTHASRTERAVLIDEVCTMNDGPHSALYTMMKDQYANYVVQKMIDVAEPGQRKIVMHKIRPHIATLRKYTYGKHILAKLEKYYMKNGVDLGDPKKKRKVDPKKKRKVGGRGGGGSGGGGSGGGGSGPA |  |  | higher activity compared to PUFc-GADD45A fusions | 
